Measurements published in publication PMC8509428, “The Phenoxyalkyltriazine Antagonists for 5-HT6 Receptor with Promising Procognitive and Pharmacokinetic Properties In Vivo in Search for a Novel Therapeutic Approach to Dementia Diseases” (International Journal of Molecular Sciences, 2021).
Where two headings read alike, the source gives them in different places.

Assays:
rats [1] = assay: Exploratory activity measured in the EPM test; format: in vivo, rat; conditions: for Total Distance / X Ambulation / Y Ambulation: mean ± SEM
Experimental: The experiment was performed using an EPM apparatus (details see above). Total ambulation (the total distance covered by a rat, and ambulation along X and Y axis) was taken to discern drug effects on general activity from those on open-arm exploration, during a 5-min test period (i.e., the time equal to the observation period in the EPM test). Rats’ behavior was not videotaped during the test.

5-HT2A receptor = target: T1, 5-HT2A receptor (Homo sapiens, UniProt P28223); assay: Functional assay for 5-HT2A receptor (aequorin, CHO-K1 cells); format: cell-based
T1 construct: expressed in transfected cells; host or cells: CHO-K1
T1 sequence (P28223 whole entry): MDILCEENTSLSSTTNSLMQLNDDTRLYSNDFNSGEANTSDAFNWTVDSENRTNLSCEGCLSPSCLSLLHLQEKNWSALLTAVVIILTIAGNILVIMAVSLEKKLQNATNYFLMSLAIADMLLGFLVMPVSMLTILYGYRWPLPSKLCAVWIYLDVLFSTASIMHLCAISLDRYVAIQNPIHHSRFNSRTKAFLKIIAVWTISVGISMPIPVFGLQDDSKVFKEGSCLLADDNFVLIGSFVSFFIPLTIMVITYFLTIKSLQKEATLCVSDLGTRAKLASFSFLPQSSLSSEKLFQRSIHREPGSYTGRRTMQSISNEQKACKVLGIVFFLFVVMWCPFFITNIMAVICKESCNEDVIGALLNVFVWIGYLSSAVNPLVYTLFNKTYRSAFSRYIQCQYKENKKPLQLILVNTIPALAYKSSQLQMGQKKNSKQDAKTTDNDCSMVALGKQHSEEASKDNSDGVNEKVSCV
Experimental: Test compounds were dissolved in dimethyl sulfoxide (DMSO) at a concentration of 10 mM. Serial dilutions were prepared in a 96-well microplate in assay buffer and eight concentrations were tested. A cellular aequorin-based functional assay was performed with recombinant CHO-K1 cells expressing mitochondrially targeted aequorin, human GPCR and the promiscuous G protein α16 for 5-HT2A. […] After thawing, cells were transferred to assay buffer (DMEM/HAM’s F12 with 0.1% protease-free BSA) and centrifuged. The cell pellet was resuspended in assay buffer and coelenterazine h was added at final concentrations of 5 μM. […] After 1 h of incubation, 50 μL of the cells suspension was dispensed using automatic injectors built into the plate reader POLARstar Omega, (BMG Labtech, Ortenberg, Germany) onto a white opaque 96-well microplates preloaded with test compounds. Immediate light emission generated following calcium mobilization was recorded for 30 s. In antagonist mode, after 30 min of incubation, the reference agonist was added to the above assay mix and light emission was recorded again. The final concentration of the reference agonist was equal to EC80.

[2] = cited from earlier work
dopaminergic receptor D2 = conditions: ± SD; cited from earlier work
[3] = Bi-directional Caco-2 permeability assay; format: in vitro ADME; conditions: human, pH 7.4, Caco-2, 10 µM, triplicate
CYP3A4 = target: T2, CYP3A4 (Homo sapiens, UniProt P08684); assay: CYP3A4 P450-Glo assay; format: in vitro ADME; conditions: 10 μM of compound
T2 construct: purchased Promega
T2 sequence (P08684 whole entry): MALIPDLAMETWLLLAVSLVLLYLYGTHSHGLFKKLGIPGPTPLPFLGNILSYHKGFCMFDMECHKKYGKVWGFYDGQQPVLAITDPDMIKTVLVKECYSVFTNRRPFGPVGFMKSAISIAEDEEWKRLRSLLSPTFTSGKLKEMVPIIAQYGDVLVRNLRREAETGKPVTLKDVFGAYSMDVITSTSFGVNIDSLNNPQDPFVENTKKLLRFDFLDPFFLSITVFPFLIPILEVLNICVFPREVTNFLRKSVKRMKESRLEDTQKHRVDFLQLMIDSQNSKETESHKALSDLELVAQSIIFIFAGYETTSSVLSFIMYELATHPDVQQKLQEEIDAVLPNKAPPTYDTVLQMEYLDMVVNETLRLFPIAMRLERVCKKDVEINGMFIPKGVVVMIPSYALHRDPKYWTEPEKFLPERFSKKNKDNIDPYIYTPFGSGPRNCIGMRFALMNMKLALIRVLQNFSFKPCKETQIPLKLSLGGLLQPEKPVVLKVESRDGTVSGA
Experimental: The luminescent CYP3A4 P450-Glo™ Promega® (Madison, WI, USA) was used for the investigation of potential drug-drug interactions. All assays and protocols were described before. The compounds were tested in triplicate at the final concentrations in the range from 0.01 to 25 μM. The luminescent signal was measured by using a microplate reader EnSpire PerkinElmer (Waltham, MA, USA).

rats [4] = assay: Elevated plus-maze (EPM) test; format: in vivo, rat; conditions: for Open Arms % of entries / Open Arms % of time / Open Arms Distance / Open Arms Entries / Open Arms Time: mean ± SEM
From the text: The testing procedure was based on a method described by. Plus-maze apparatus (an automated device produced by Campden Instruments Ltd. (Leicestershire, UK) made of durable, high density, non-porous black plastic, elevated to a height of 50 cm, consisted of two open arms (50 × 10 cm) and two closed arms (50 × 10 cm, and 30 cm high walls), arranged so that the two arms of each type were opposite each other. The floor of the plus-maze was made of infrared transparent material what means that there are no visible sensors. Plus-maze apparatus was connected to PC software by control chassis. The experiments were conducted in a darkened room, only the center of the maze was illuminated with low-intensity light (30 lux measured on the maze level). Each rat was gently placed in the center of the plus-maze, facing one of the closed arms, immediately after a 5-min adaptation period in a plastic black box (60 × 60 × 35 cm), to increase the overall activity in the EPM. During a 5-min test period, automated Motor Monitor System recorded the number of entries into the closed and open arms and the time spent in either type of arms. The device counted an effective arm-entry when the four paws of a rat were into any arm. The maze was thoroughly cleaned after each trial. The EPM test is an “unconditional” anxiety-like test based on rodents’ natural aversion to heights and open space.

5-HT7R = conditions: ± SD; read-out: Ki 5-HT7 (converted); cited from earlier work
[5] = system: MK-801-induced memory deficits in rats; conditions: i.p.; cited from earlier work
hepatoma HepG2 cell line = conditions: 50 µM; cited from earlier work
5-HT1AR = target: T3, 5-HT1AR (Homo sapiens, UniProt P08908); assay: Radioligand binding assay (RBA), 5-HT1AR; conditions: ± SD; displacement of [3H]-8-OHDPAT, HEK-293 cells; read-out: Ki 5-HT1A (converted)
T3 construct: expressed in transfected cells; host or cells: HEK-293
T3 sequence (P08908 1-422): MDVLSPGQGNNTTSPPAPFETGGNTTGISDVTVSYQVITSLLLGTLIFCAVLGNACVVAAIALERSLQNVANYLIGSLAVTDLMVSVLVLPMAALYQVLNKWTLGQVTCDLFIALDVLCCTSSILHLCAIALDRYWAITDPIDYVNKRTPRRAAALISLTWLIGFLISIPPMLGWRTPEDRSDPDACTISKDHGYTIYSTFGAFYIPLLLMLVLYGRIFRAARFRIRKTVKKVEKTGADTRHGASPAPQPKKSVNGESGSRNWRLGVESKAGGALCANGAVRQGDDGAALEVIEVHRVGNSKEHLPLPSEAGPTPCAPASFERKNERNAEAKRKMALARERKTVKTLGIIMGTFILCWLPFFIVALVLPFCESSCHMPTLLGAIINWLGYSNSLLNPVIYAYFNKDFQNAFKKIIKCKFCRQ
Experimental: The cells used in the radioligand binding assays receptor 5-HT1A were stably expressed in HEK-293 cells. Transfections were performed with the use of Lipofectamine 2000. The binding procedure was accomplished via the displacement of 2.5 nM [^3H]-8-OHDPAT (135.2 Ci/mmol) for 5-HT1AR. Each compound was tested in triplicate in seven to eight different concentrations (10^−11 to 10^−4 M). The inhibition constants (Ki) were calculated using the Cheng–Prusoff equation [45] and the results are expressed as the mean of at least two independent experiments.

[6] = target: human serotonin 5-HT6 receptor (Homo sapiens, UniProt P50406); set-up: host or cells: 1321N1; conditions: cited from earlier work
human serotonin 5-HT6 receptor, sequence (P50406 whole entry): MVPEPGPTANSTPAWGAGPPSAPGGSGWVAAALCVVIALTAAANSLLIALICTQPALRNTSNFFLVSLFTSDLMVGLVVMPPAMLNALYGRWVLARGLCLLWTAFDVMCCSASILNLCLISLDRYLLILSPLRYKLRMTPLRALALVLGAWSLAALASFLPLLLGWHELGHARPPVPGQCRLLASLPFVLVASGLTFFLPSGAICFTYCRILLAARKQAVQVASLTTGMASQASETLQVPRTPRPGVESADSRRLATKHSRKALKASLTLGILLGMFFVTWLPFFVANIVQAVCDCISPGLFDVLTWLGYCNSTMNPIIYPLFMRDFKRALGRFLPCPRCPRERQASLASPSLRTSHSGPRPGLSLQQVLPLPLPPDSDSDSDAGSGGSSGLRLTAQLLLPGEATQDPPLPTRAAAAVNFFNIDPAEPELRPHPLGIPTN

[7] = system: Salmonella Typhimurium TA100; format: cell-based
From the text: The used Salmonella Typhimurium TA100 strain has base pair substitution (hisG46 mutation, which target is GGG). […] The occurrence of revertants was visualized by pH indicator dye which was present in the bacterial medium.

human 5-HT6R = conditions: ± SD; read-out: Ki 5-HT6 (converted); cited from earlier work
rats [8] = assay: Forced swim test (FST); format: in vivo, rat; conditions: for Immobility Time: 60 min before test, mean ± SEM
Experimental: The experiment was carried out according to the method of [54]. On the first day of the experiment, the animals were gently individually placed in Plexiglas cylinders (40 cm high, 18 cm in diameter) containing 15 cm of water maintained at 23–25 °C for 15 min. On removal from water, the rats were placed for 30 min in a Plexiglas box under 60-W bulb to dry. On the following day (24 h later), the rats were replaced in the cylinder and the total duration of immobility was recorded during the whole 5-min test period. The immobility was assigned when no additional activity was observed other than that necessary to keep the rat’s head above the water. Fresh water was used for each animal.

CCC(Oc1cc(Cl)ccc1Cl)c1nc(N)nc(N2CCN(C)CC2)n1 (racemic) [Compound 1, (RS)-4-[1-(2,5-dichlorophenoxy)propyl]-6-(4-methylpiperazin-1-yl)-1,3,5-triazin-2-amine]
Total Distance (rats [1]; 1 mg/kg i.p.): 4520 ± 168 cm | X Ambulation (rats [1]; 1 mg/kg i.p.): 172 ± 6 | Y Ambulation (rats [1]; 1 mg/kg i.p.): 99 ± 6 | Total Distance (rats [1]; 3 mg/kg i.p.): 3995 ± 218 cm | X Ambulation (rats [1]; 3 mg/kg i.p.): 146 ± 10 | Y Ambulation (rats [1]; 3 mg/kg i.p.): 82 ± 7 | decrease of total distance (rats [1]; 10 mg/kg i.p.): 20% | Total Distance (rats [1]; 10 mg/kg i.p.): 3681 ± 256; p < 0.05 F(3,24) = 4.5291; p < 0.05 cm | X Ambulation (rats [1]; 10 mg/kg i.p.): 140 ± 11 F(3,24) = 3.8035; p < 0.05 | Y Ambulation (rats [1]; 10 mg/kg i.p.): 83 ± 8 F(3,24) = 1.9215; NS | Emax (5-HT2A receptor; Table S2, read-out: 5-HT2A Antagonist mode Emax): 0% | Emax (5-HT2A receptor; read-out: 5-HT2AR Agonist Mode Emax): 58 ± 9.7% | number of metabolites formed ([2]; RLMs, 120 min): six | parent biotransformed ([2]; RLMs, 120 min): more than 90% | parent remaining (metabolic stability) ([2]; compound 1, RLMs): < 10% | Ki (dopaminergic receptor D2): 0.32 ± 0.019 µM | Papp A→B at 2 h, 10 µM [3]: 14.2 ± 0.36 ×10⁻⁶ cm/s | Papp B→A at 2 h, 10 µM [3]: 22.2 ± 1.92 ×10⁻⁶ cm/s | CYP3A4 activity remaining (CYP3A4): 44% | Open Arms % of entries (rats [4]; 1 mg/kg i.p.): 32.59 ± 4.23% | Open Arms % of time (rats [4]; 1 mg/kg i.p.): 25.76 ± 6.11% | Open Arms Distance (rats [4]; 1 mg/kg i.p.): 788 ± 175 cm | Open Arms Entries (rats [4]; 1 mg/kg i.p.): 9.88 ± 1.99 | Open Arms Time (rats [4]; 1 mg/kg i.p.): 58.90 ± 14.20 s | Open Arms % of entries (rats [4]; 3 mg/kg i.p.): 29.49 ± 3.48% | Open Arms % of time (rats [4]; 3 mg/kg i.p.): 10.27 ± 2.05% | Open Arms Distance (rats [4]; 3 mg/kg i.p.): 307 ± 78 cm | Open Arms Entries (rats [4]; 3 mg/kg i.p.): 6.14 ± 0.77 | Open Arms Time (rats [4]; 3 mg/kg i.p.): 24.81 ± 5.24 s | Open Arms % of entries (rats [4]; 10 mg/kg i.p.): 42.23 ± 9.09% | Open Arms % of time (rats [4]; 10 mg/kg i.p.): 18.34 ± 4.19% | Open Arms Distance (rats [4]; 10 mg/kg i.p.): 538 ± 104 cm | Open Arms Entries (rats [4]; 10 mg/kg i.p.): 7.20 ± 1.66 | Open Arms Time (rats [4]; 10 mg/kg i.p.): 43.36 ± 9.08 s | anxiolytic-like activity in EPM test (rats [4]; i.p., 60 min before test): did not show anxiolytic-like activity | Ki (5-HT7R): 5.71 ± 0.967 µM | effective dose in NOR test [5]: 3 mg/kg | hepatotoxic effect, HepG2 (hepatoma HepG2 cell line): weak hepatotoxic effect | Ki (5-HT1AR): 4.76 ± 1.19 µM | 5-HT6 Antagonist Mode Emax ([6]; Table S1, compound 1): 98% | 5-HT6R Agonist Mode Emax ([6]; compound 1, previous functional assays): 4.00 ± 0.00% | Binomial B-Value ([7]; 1 µM): 0.0707 | Number of Revertants ± SD ([7]; 1 µM): 2.00 ± 1.00 | Binomial B-Value ([7]; 10 µM): 0.0707 | Number of Revertants ± SD ([7]; 10 µM): 2.00 ± 1.00 | Ki (human 5-HT6R): 0.006 ± 0.001 µM | Immobility Time (rats [8]; 1 mg/kg i.p.): 241.80 ± 18.7 s | decrease of immobility time vs vehicle-treated group (rats [8]; 3 mg/kg): about 30% | Immobility Time (rats [8]; 3 mg/kg i.p.): 175.29 ± 18.1 s | decrease of immobility time vs vehicle-treated group (rats [8]; 10 mg/kg): about 36% | Immobility Time (rats [8]; 10 mg/kg i.p.): 163.63 ± 11.2 s
